Experimental data: PubChem BioAssay (NCI)
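GI50: concentration for 50% inhibition of growth. TGI marks complete inhibition of growth.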

What was measured:
Experiment in all cases: growth of human tumour cells (NCI), 384-well format
ACHN renal = tested on: ACHN renal
HS 578T breast = tested on: HS 578T breast
HT29 colon = tested on: HT29 colon
KM12 colon = tested on: KM12 colon
MCF7 breast = tested on: MCF7 breast
MDA-MB-231 breast = tested on: MDA-MB-231 breast
NCI-H226 lung = tested on: NCI-H226 lung
NCI-H322M lung = tested on: NCI-H322M lung
OVCAR-5 ovarian = tested on: OVCAR-5 ovarian
RXF 393 renal = tested on: RXF 393 renal
SF-268 CNS = tested on: SF-268 CNS
SR leukemia = tested on: SR leukemia
UO-31 renal = tested on: UO-31 renal

Row | Compound | GI50 (ACHN renal) [µM] | TGI (ACHN renal) [µM] | GI50 (HS 578T breast) [µM] | TGI (HS 578T breast) [µM] | GI50 (HT29 colon) [µM] | TGI (HT29 colon) [µM] | GI50 (KM12 colon) [µM] | TGI (KM12 colon) [µM] | GI50 (MCF7 breast) [µM] | TGI (MCF7 breast) [µM] | GI50 (MDA-MB-231 breast) [µM] | TGI (MDA-MB-231 breast) [µM] | GI50 (NCI-H226 lung) [µM] | TGI (NCI-H226 lung) [µM] | GI50 (NCI-H322M lung) [µM] | TGI (NCI-H322M lung) [µM] | GI50 (OVCAR-5 ovarian) [µM] | TGI (OVCAR-5 ovarian) [µM] | GI50 (RXF 393 renal) [µM] | TGI (RXF 393 renal) [µM] | other results
1 | Cc1cc(-c2nnc(N)nc2-c2ccc(F)cc2)cc(Cl)n1 | > 100 | > 100 | 62.8 | > 100 | > 100 | > 100 | > 87.1 | > 100 | > 100 | > 100 | > 85.7 | > 100 | > 100 | > 100 | > 100 | > 100 | > 100 | > 100 | 28.5 | > 100 | GI50 (SF-268 CNS): > 100 µM; TGI (SF-268 CNS): > 100 µM; GI50 (SR leukemia): 33.9 µM; TGI (SR leukemia): > 100 µM; GI50 (UO-31 renal): 88.6 µM; TGI (UO-31 renal): > 100 µM
2 | Cc1ccc(-c2nc(N)nc3c2nnn3Cc2cccc(CO[C@H]3CCOC3)n2)o1 | > 100 | > 100 | > 100 | > 100 | > 100 | > 100 | > 100 | > 100 | > 100 | > 100 | 88.2 | > 100 | > 100 | > 100 | > 100 | > 100 | > 100 | > 100 | 97.4 | > 100 | GI50 (SF-268 CNS): > 100 µM; TGI (SF-268 CNS): > 100 µM; GI50 (SR leukemia): > 73.2 µM; TGI (SR leukemia): > 100 µM; GI50 (UO-31 renal): > 100 µM; TGI (UO-31 renal): > 100 µM
